The text below walks through data of US6852531B2, “Compositions and methods for reproducing and modulating mammalian messenger RNA decapping” (University of Medicine & Dentistry of NJ, priority 2000, dated 2005).

The test system of data set [1] is decapping activity in HeLa S100 cytoplasmic extract. Put plainly: In vitro decapping assay (release of 7meGDP from cap-labeled RNA, TLC). The class given is biochemical, human. The note with it: for effect of competitor RNA on decapping of AU-rich element-containing RNA substrate: FIG. 6; for activation of decapping in human cytoplasmic extract: cold cap analog added to standard S100 extract. On the procedure:
In one embodiment of a manual procedure, the components are as follows (referred to herein as “standard reaction conditions”): • 1 microliter ^7meGpppG or ^7meGTP competitor (50-500 ng/microliter); • 1 microliter RNA (˜5-200 fmol; labeled at the alpha phosphate of the cap); • 4 microliters S100 extract; and • 4 microliters water.
The mixture is incubated at 30° C. for 30 min; aliquots are then taken at designated time points to follow the kinetics of decapping by visualization of the product of decapping, ^7meGDP, by, for example, thin layer chromatography on a cellulose PEI sheet using a mobile phase of 0.45 M ammonium sulfate. Other means for identifying the decapping product are fully embraced herein.
Decapping assays were performed using conditions adapted from Zhang et al (1999b). 10-50 fmoles of cap-labeled RNAs were incubated with 4 microliters HeLa S100 cytoplasmic extract in a 10 microliter reaction in the presence of CE buffer (50 mM Tris pH 7.9, 30 mM (NH4)2SO4, 1 mM MgCl2) and 20 micromolar cap analog (where indicated). Reaction mixtures were incubated at 30° C. for the times indicated and stopped by the addition of 1 microliter of 0.25 M EDTA. Reaction products were separated and identified by thin layer chromatography on PEI cellulose sheets developed in 450 mM (NH4)2SO4. Quantitation was performed using a Molecular Dynamics Phosphorimager. Twenty micrograms of ^7meGMP and ^7meGDP were routinely spotted on TLC plates along with reaction samples to serve as markers that could be visualized by UV shadowing.

Data set [2] has as its system unidentified 40 kDa species (ARE-specific RNA binding protein). Put plainly: UV cross-linking of ARE-binding proteins with ARE competitor RNA. Set-up: species or system human. Conditions: S100 extract. On the procedure: (§1) UV cross-linking analysis was performed as described (Wilusz and Shenk, 1988). Briefly, 20-50 fmoles of cap-radiolabeled RNA was incubated in the in vitro decapping assay for 5 min. and then reaction mixtures were irradiated on ice for 10 min. using a 15W germicidal light. RNases A and T1 were added and proteins covalently attached to short radioactive RNA oligomers were analyzed on a 10% acrylamide gel containing SDS. For analysis of UV cross-linked DAN/PARN protein by immunoprecipitation using a polyclonal antibody obtained from M. Wormington (Korner et al., 1998), 400 ul of NET2 buffer (50 mM Tris pH 7.6, 150 mM NaCl, 0.01% NP40) was added to reaction mixtures following RNase treatment and reaction mixtures were centrifuged for 4 min. Pre-cleared samples were incubated on ice with 2-5 microliters of specified rabbit polyclonal antisera for 1 hr. Antigen antibody complexes were collected on protein A-positive Staphylococcus aureus cells, washed five times in RIPA buffer (50 mM Tris, pH 7.6, 150 mM NaCl, 0.1% SDS, 1% NP40, 0.5% deoxycholate), and immunoprecipitated cross-linked proteins were analyzed on a 10 or 15% acrylamide gel containing SDS.

The next data set has as its target T1, HuR (Homo sapiens, UniProt Q15717).
T1 construct: endogenous in cells; host or cells: HeLa spinner cells, S100 cytoplasmic extract
The data set is described as above. Conditions: S100 extract. On the procedure:
as §1

The target of the next data set is T2, deadenylase DAN/PARN (Homo sapiens, UniProt O95453).
T2 construct: incubated HeLa S100 extracts using cap-labeled GemARE-A60 RNA under decapping conditions; endogenous in cells; host or cells: HeLa spinner cells, S100 cytoplasmic extract
T2 sequence (O95453 1-639): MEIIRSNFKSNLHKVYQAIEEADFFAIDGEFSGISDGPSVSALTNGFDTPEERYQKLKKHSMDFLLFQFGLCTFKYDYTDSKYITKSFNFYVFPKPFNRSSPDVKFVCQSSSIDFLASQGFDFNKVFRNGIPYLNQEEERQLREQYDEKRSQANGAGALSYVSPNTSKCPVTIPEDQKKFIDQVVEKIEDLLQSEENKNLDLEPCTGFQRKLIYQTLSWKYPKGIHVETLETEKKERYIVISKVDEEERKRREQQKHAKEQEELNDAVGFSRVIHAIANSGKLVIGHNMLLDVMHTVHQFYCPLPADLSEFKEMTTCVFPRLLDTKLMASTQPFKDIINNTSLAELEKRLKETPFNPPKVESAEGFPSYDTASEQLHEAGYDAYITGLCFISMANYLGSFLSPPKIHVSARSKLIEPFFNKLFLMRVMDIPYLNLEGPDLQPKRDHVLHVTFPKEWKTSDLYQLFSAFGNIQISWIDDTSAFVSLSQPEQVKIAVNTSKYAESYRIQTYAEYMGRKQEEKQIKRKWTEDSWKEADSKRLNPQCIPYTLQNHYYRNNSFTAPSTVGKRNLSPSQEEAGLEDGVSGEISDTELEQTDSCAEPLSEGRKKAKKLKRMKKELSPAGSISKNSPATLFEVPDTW
Put plainly: UV cross-linking / immunoprecipitation of DAN/PARN. In kind it is binding. On the procedure: as §1

Data set [3] has as its target T3, 24 kDa cap binding protein (eIF4E) (Homo sapiens, UniProt P06730).
T3 construct: endogenous in cells; host or cells: HeLa spinner cells, S100 cytoplasmic extract
Put plainly: UV cross-linking of cap-labeled RNA to cap-binding proteins. On the procedure:
as §1

Setting [4] is: titration, GemARE-A0 RNA, FIG. 2D.
Setting [5] is: 5 micromolar cap analog, FIG. 2D.

T3 sequence (P06730 whole entry): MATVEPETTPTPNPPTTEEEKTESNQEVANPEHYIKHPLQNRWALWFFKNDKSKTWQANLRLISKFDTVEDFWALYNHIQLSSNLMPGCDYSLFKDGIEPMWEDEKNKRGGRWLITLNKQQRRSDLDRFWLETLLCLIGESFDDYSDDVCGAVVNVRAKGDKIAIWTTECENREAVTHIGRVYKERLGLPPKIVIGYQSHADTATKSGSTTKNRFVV
T1 sequence (Q15717 whole entry): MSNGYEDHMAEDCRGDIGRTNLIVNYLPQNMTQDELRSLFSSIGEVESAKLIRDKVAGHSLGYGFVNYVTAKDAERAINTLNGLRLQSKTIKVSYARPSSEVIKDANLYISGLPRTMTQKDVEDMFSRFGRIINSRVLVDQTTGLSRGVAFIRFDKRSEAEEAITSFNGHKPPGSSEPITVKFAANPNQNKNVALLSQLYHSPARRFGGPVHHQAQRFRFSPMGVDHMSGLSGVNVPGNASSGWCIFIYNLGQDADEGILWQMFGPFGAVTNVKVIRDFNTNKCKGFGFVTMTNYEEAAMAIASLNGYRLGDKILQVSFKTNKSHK

As to “5′-GGAUUAACUAAUUGAUACCGCGUAUACACGCGG (RNA, backbone not given here) [control competitor RNA]”, in data set [1] (with cap analog), the “effect of competitor RNA on decapping of AU-rich element-containing RNA substrate” value is listed as “no effect on decapping efficiency”.

In the case of “5′AUUAUUUAUUAUUUAUUUAUUAUUUAUUUAUUUA (RNA, backbone not given here) [ARE competitor RNA]”, the “substrate dependence of the reduction in decapping efficiency” value in data set [1] (Gem-A0 versus GemARE-A0, FIG. 6B) was “only observed with RNA substrates that contained an AU-rich element”. The “effect of competitor RNA on decapping of AU-rich element-containing RNA substrate” value in data set [1] (with cap analog) is “significantly reduced decapping”. Also, the “competition of 40 kDa species cross-linking” value in data set [2] was “competed”. The “competition of HuR cross-linking” value with HuR is “competed”.

Take `Nc1nc2c(ncn2[C@@H]2O[C@H](COP(=O)(O)OP(=O)(O)OP(=O)(O)OC[C@H]3O[C@@H](n4cnc5c(=O)[nH]c(N)nc54)[C@H](O)[C@@H]3O)[C@@H](O)[C@H]2O)c(=O)[nH]1` [GpppG]: the “ability of methylated versus non-methylated cap analogs to activate decapping” value in data set [1] (HeLa S100, cap-labeled GemARE-A60 RNA, FIG. 2A) is given as “the presence of the methyl group on the cap analog was absolutely required to activate decapping”.

Consider `Cn1c[n+]([C@@H]2O[C@H](COP(=O)([O-])OP(=O)(O)OP(=O)(O)O)[C@@H](O)[C@H]2O)c2nc(N)[nH]c(=O)c21` [^7meGTP], for which, in data set [1], the “activation of decapping in human cytoplasmic extract” value was “activates the human cytoplasmic extract”.

Consider `Cn1c[n+]([C@@H]2O[C@H](COP(=O)(O)OP(=O)(O)OP(=O)(O)OC[C@H]3O[C@@H](n4cnc5c(=O)[nH]c(N)nc54)[C@H](O)[C@@H]3O)[C@@H](O)[C@H]2O)c2nc(N)[nH]c(=O)c21` [^7meGpppG], for which the “activation of decapping of RNA substrates (accumulation of 7meGDP)” value in data set [1] (20 micromolar, 3 independently prepared HeLa cytoplasmic extracts, FIG. 1B) was “activated decapping”. In addition, in data set [1], the “activation of decapping in human cytoplasmic extract” value is listed as “activates the human cytoplasmic extract”. In data set [1] (setting [4]), the “amount of cap analog giving only partial activation of decapping” value was found to be 5 micromolar and the “amount of cap analog required for full activation of decapping” value was 10 micromolar. For the same compound, the “full sequestration of DAN/PARN” value at deadenylase DAN/PARN (setting [5]) is listed as “not”. Further, the “competition for cap binding by DAN/PARN” value at deadenylase DAN/PARN (FIG. 2C) is “specifically competed”. Moreover, the “amount required to fully sequester DAN/PARN” value at deadenylase DAN/PARN (FIG. 2D) was found to be 10 µM. In addition, the “sequestration of 24 kDa cap binding protein” value in data set [3] (setting [5]) was “fully sequestered”. Besides, the “competition for cross-linking of 24 kDa protein to cap” value in data set [3] (increasing amounts, HeLa S100, FIG. 2B) is recorded as “specifically competed”.

For poly(C), the “effect of other homopolymer on decapping” value in data set [1] (all RNA substrates tested, with cap analog, FIG. 4B) is recorded as “did not appreciably affect decapping”.
